Measured values taken from the supplement of paper PMC10307832.

Assays:
Assay in all cases: relative viability (nuclei count vs DMSO), 5 days (fraction); higher = more cells survive
[1] = compound: COc1cccc2c1C(=O)c1c(O)c3c(c(O)c1C2=O)C[C@@](O)(C(=O)CO)C[C@@H]3O[C@H]1C[C@H](N)[C@H](O)[C@H](C)O1 [Doxorubicin] + CC(C)C[C@H](NC(=O)[C@H](Cc1ccccc1)NC(=O)c1cnccn1)B(O)O [Bortezomib] (partner 0.002 µM)
In short: (§1)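 Lung cancer cell lines were pin-tool dosed in 1536-well plates on the day after seeding, with either a lone drug or a fixed anchor-drug dose plus five library-drug doses (not always all listed) in √10 steps. Nuclei were counted on 4× images after 5 days. Relative viability is the ratio of treated-well to vehicle-well nuclei counts, with each value a median of duplicate plates.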

[2] = compound: COC1=C(C=C(C=C1)C2=CC3=NC=CN3C(=N2)NC4=C(C=CC=N4)C(=O)N)OC [BAY61-3606] + C[C@@H](Oc1cc(-c2cnn(C3CCNCC3)c2)cnc1N)c1c(Cl)ccc(F)c1Cl [Crizotinib] (partner 1 µM)
In short: as §1

[3] = compound: COc1cccc2c1C(=O)c1c(O)c3c(c(O)c1C2=O)C[C@@](O)(C(=O)CO)C[C@@H]3O[C@H]1C[C@H](N)[C@H](O)[C@H](C)O1 [Doxorubicin] + CC(=O)Nc1cccc(-n2c(=O)n(C3CC3)c(=O)c3c(Nc4ccc(I)cc4F)n(C)c(=O)c(C)c32)c1 [Trametinib] (partner 0.02 µM)
In short: as §1

[4] = compound: COC1=C(C=C(C=C1)C2=CC3=NC=CN3C(=N2)NC4=C(C=CC=N4)C(=O)N)OC [BAY61-3606] + CS(=O)(=O)N1CCN(Cc2cc3nc(-c4cccc5[nH]ncc45)nc(N4CCOCC4)c3s2)CC1 [Pictilisib] (partner 1 µM)
In short: as §1

## UMC-11
[1]; first compound 0.001 µM
  relative viability: 0.667
[1]; first compound 0.003162 µM
  relative viability: 0.543
[1]; first compound 0.01 µM
  relative viability: 0.668
[1]; first compound 0.03162 µM
  relative viability: 0.379
[1]; first compound 0.1 µM
  relative viability: 0.436
[2]; first compound 0.02 µM
  relative viability: 0.664
[2]; first compound 0.06325 µM
  relative viability: 0.613
[2]; first compound 0.2 µM
  relative viability: 0.503
[2]; first compound 0.6325 µM
  relative viability: 0.762
[2]; first compound 2 µM
  relative viability: 0.509
[3]; first compound 0.001 µM
  relative viability: 0.948
[3]; first compound 0.003162 µM
  relative viability: 0.761
[3]; first compound 0.01 µM
  relative viability: 0.768
[3]; first compound 0.03162 µM
  relative viability: 0.366
[3]; first compound 0.1 µM
  relative viability: 0.442
[4]; first compound 0.02 µM
  relative viability: 0.851
[4]; first compound 0.06325 µM
  relative viability: 0.799
[4]; first compound 0.2 µM
  relative viability: 0.527
[4]; first compound 0.6325 µM
  relative viability: 0.922
[4]; first compound 2 µM
  relative viability: 0.622
